Test results published in ChEMBL document CHEMBL1201862, “PubChem BioAssay data set” (2004).
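Method: 48-hour compound exposure of cells in 96-well plates, five concentrations, linear interpolation of endpoints. GI50 is the concentration that inhibits growth by half.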 Active and inactive are the calls of the source. Cut-off read from the data, not from the text of the source: active = GI50 up to about 1.1 µM and inactive = higher.

Legend:
Test in all cases: NCI tumour cell line growth inhibition, 48 h
[1] = system: OVCAR-5
[2] = system: EKVX
[3] = system: NCI-H460
[4] = system: ACHN
[5] = system: A498
[6] = system: SNB-19
[7] = system: KM12
[8] = system: SF-539
[9] = system: SK-MEL-5
[10] = system: RXF 393
[11] = system: SNB-75
[12] = system: HT-29
[13] = system: CAKI-1
[14] = system: BT-549
[15] = system: SK-MEL-28
[16] = system: NCI-H226
[17] = system: MDA-MB-231
[18] = system: HL-60
[19] = system: SR

| SMILES | GI50 [1] | GI50 [2] | GI50 [3] | GI50 [4] | GI50 [5] | GI50 [6] | GI50 [7] | GI50 [8] | GI50 [9] | GI50 [10] | GI50 [11] | GI50 [12] | GI50 [13] | GI50 [14] | GI50 [15] | GI50 [16] | GI50 [17] | GI50 [18] | GI50 [19] |
| --- | --- | --- | --- | --- | --- | --- | --- | --- | --- | --- | --- | --- | --- | --- | --- | --- | --- | --- | --- |
| CC(C)[Si](OC1=C(C(=O)N(C)c2ccccc2Cl)CCC1)(C(C)C)C(C)C | 9.64 µM (inactive) | 16.9 µM (inactive) | 22.4 µM (inactive) | 19.9 µM (inactive) | 15.6 µM (inactive) | 15.8 µM (inactive) | 20.6 µM (inactive) | 22.9 µM (inactive) | 24.8 µM (inactive) | 18.3 µM (inactive) | 13.3 µM (inactive) | 15.3 µM (inactive) | 18.7 µM (inactive) | 15.8 µM (inactive) | 21.5 µM (inactive) | 21.1 µM (inactive) | 16 µM (inactive) | – | – |
| COc1cc(/C=C/C(=O)CC(=O)/C=C/c2ccc(OC(=O)CCCCC3CCSS3)c(OC)c2)ccc1OC(=O)CCCCC1CCSS1 (configuration not stated) | > 100 µM (inactive) | > 100 µM (inactive) | > 100 µM (inactive) | > 100 µM (inactive) | – | > 100 µM (inactive) | > 100 µM (inactive) | > 100 µM (inactive) | > 100 µM (inactive) | > 100 µM (inactive) | > 100 µM (inactive) | > 100 µM (inactive) | – | > 100 µM (inactive) | > 100 µM (inactive) | > 100 µM (inactive) | > 100 µM (inactive) | > 100 µM (inactive) | – |
| Cc1ccc(S(=O)(=O)n2cc(/C=C/C#N)c(/C=C/C#N)c2)cc1 | > 100 µM (inactive) | 85.1 µM (inactive) | > 100 µM (inactive) | 72.8 µM (inactive) | 50.5 µM (inactive) | 57.9 µM (inactive) | 48.4 µM (inactive) | > 100 µM (inactive) | 39.2 µM (inactive) | 33.7 µM (inactive) | 29.8 µM (inactive) | > 100 µM (inactive) | – | – | > 100 µM (inactive) | – | – | 25.5 µM (inactive) | – |
| CCOC(=O)c1c(N2CCCC2)ncn(C)c1=S | > 100 µM (inactive) | > 100 µM (inactive) | > 100 µM (inactive) | > 100 µM (inactive) | > 100 µM (inactive) | > 100 µM (inactive) | > 100 µM (inactive) | > 100 µM (inactive) | > 100 µM (inactive) | > 100 µM (inactive) | – | > 100 µM (inactive) | > 100 µM (inactive) | – | > 100 µM (inactive) | > 100 µM (inactive) | > 100 µM (inactive) | > 100 µM (inactive) | > 100 µM (inactive) |
| CCC(=O)OC1=C(c2ccccc2)Sc2ccc(Cl)cc2-n2cccc21 | – | > 10 µM (inactive) | – | – | – | – | 9.04 µM (inactive) | – | > 10 µM (inactive) | 3.24 µM (inactive) | > 10 µM (inactive) | 3.78 µM (inactive) | > 10 µM (inactive) | – | > 10 µM (inactive) | – | 4.47 µM (inactive) | 3.95 µM (inactive) | 7.52 µM (inactive) |
| O=S(=O)(O)c1cccc2ccc(O)c(/N=N\c3ccc(S(=O)(=O)c4ccc(/N=N/c5c(O)ccc6cccc(S(=O)(=O)O)c56)cc4)cc3)c12 | > 100 µM (inactive) | > 100 µM (inactive) | – | > 100 µM (inactive) | – | > 100 µM (inactive) | 67.3 µM (inactive) | – | > 100 µM (inactive) | > 100 µM (inactive) | 65.5 µM (inactive) | > 100 µM (inactive) | > 100 µM (inactive) | > 100 µM (inactive) | > 100 µM (inactive) | > 100 µM (inactive) | > 100 µM (inactive) | < 0.01 µM (active) | – |
| CC(C)(C)OC(=O)n1cc(C2CN(O)C(=O)C23CCC(=O)N3Cc2ccccc2)c2ccccc21 (configuration not stated) | 46.9 µM (inactive) | 21.9 µM (inactive) | 56.4 µM (inactive) | – | 24.8 µM (inactive) | 68.7 µM (inactive) | 44.1 µM (inactive) | 49 µM (inactive) | 29.4 µM (inactive) | 68.4 µM (inactive) | 32.7 µM (inactive) | 39.9 µM (inactive) | 54.6 µM (inactive) | – | – | 24.5 µM (inactive) | 28.8 µM (inactive) | 54.2 µM (inactive) | 44.6 µM (inactive) |
| c1ccc(-c2cccc(-c3ccccn3)n2)nc1 [TERPYRIDINE] | 0.755 µM (active) | 0.476 µM (active) | 0.382 µM (active) | 0.385 µM (active) | 1.09 µM (active) | 0.935 µM (active) | 0.507 µM (active) | 0.51 µM (active) | 0.246 µM (active) | 0.424 µM (active) | 1.57 µM (inactive) | 0.5 µM (active) | 0.527 µM (active) | – | 0.706 µM (active) | – | 0.397 µM (active) | 0.173 µM (active) | 0.317 µM (active) |
| Clc1cccc(Cl)c1C1SCc2nc3ncccc3n21 (configuration not stated) | > 100 µM (inactive) | > 100 µM (inactive) | > 100 µM (inactive) | > 100 µM (inactive) | > 100 µM (inactive) | > 100 µM (inactive) | 52.8 µM (inactive) | > 100 µM (inactive) | 65.8 µM (inactive) | > 100 µM (inactive) | 40.6 µM (inactive) | > 100 µM (inactive) | 8.07 µM (inactive) | – | > 100 µM (inactive) | 66.8 µM (inactive) | 19 µM (inactive) | 60.7 µM (inactive) | > 100 µM (inactive) |
| CN(C(=O)C1=CCC2(CC1)OCCO2)c1ccccc1OS(=O)(=O)C(F)(F)F | > 100 µM (inactive) | > 100 µM (inactive) | 85.3 µM (inactive) | > 100 µM (inactive) | > 100 µM (inactive) | > 100 µM (inactive) | 25.3 µM (inactive) | – | > 100 µM (inactive) | > 100 µM (inactive) | 15.5 µM (inactive) | – | > 100 µM (inactive) | – | > 100 µM (inactive) | 16.2 µM (inactive) | > 100 µM (inactive) | > 100 µM (inactive) | > 100 µM (inactive) |
| CC1(C)Oc2ccc3c(=O)cc(-c4cccs4)oc3c2C1C(=O)O (configuration not stated) | > 100 µM (inactive) | > 100 µM (inactive) | – | – | > 100 µM (inactive) | – | – | > 100 µM (inactive) | > 100 µM (inactive) | > 100 µM (inactive) | – | > 100 µM (inactive) | 23.2 µM (inactive) | – | – | > 100 µM (inactive) | > 100 µM (inactive) | > 100 µM (inactive) | > 100 µM (inactive) |
| COc1cc(/C=N/NC(=O)c2ccc(NC(C)=O)cc2OC)ccc1O | > 100 µM (inactive) | 77.6 µM (inactive) | – | 38.9 µM (inactive) | 86.3 µM (inactive) | 74.3 µM (inactive) | > 100 µM (inactive) | 39.2 µM (inactive) | > 100 µM (inactive) | 39.3 µM (inactive) | 26.7 µM (inactive) | > 100 µM (inactive) | > 100 µM (inactive) | > 100 µM (inactive) | > 100 µM (inactive) | < 0.01 µM (active) | – | > 100 µM (inactive) | > 100 µM (inactive) |
| Cc1cn(C2CC(N=[N+]=[N-])C(CO)O2)c(=O)n(CCCCBr)c1=O (configuration not stated) | > 100 µM (inactive) | > 100 µM (inactive) | > 100 µM (inactive) | > 100 µM (inactive) | > 100 µM (inactive) | > 100 µM (inactive) | > 100 µM (inactive) | > 100 µM (inactive) | – | > 100 µM (inactive) | 63.2 µM (inactive) | > 100 µM (inactive) | > 100 µM (inactive) | > 100 µM (inactive) | > 100 µM (inactive) | > 100 µM (inactive) | 35.6 µM (inactive) | – | – |
